# Values quoted from earlier work, collected in patent publication US4340609A, “Amidinourea derivative veterinary compositions for suppression of parasitemia” (William H. Rorer, Inc., priority 1980, dated 1982).
# Key:
# [1] = system: Babesis caballi, or B. equi; details: horses; reported; cited from earlier work
# [2] = system: P. berghei; details: cited from earlier work
compound,measurement,setting,value
N=C(N)c1ccc(N=NNc2ccc(C(=N)N)cc2)cc1 [birenil],effect on equine piroplasmosis parasites,[1],only to reduce the number of parasites
CC1(C)N=C(N)N=C(N)N1c1ccc(Cl)cc1 [chloroguanide triazine pamoate],excretion from the host body,"[2]; P. berghei infected mice, single muscular injection",not excreted rapidly from the host body
same,effect in P. berghei infected mice,[2]; single muscular injection,good and lasting effects
CCc1nc(N)nc(N)c1-c1ccc(Cl)cc1 [pyrimethamine],resistance of P. berghei,[2]; P. berghei,resistant
acriflavin,effect on equine piroplasmosis parasites,[1],only to reduce the number of parasites
